From US20250214991A1 (Oncopia Therapeutics, Inc. d/b/a/ SK Life Science Labs, priority 2022, published 2025)

What was measured:
IKZF2 = IKZF2 (Homo sapiens (Human), UniProt Q96SW2+Q9UKS7); assay: In vitro IKZF2 HiBit Assay (HEK293T Flp-in-HiBiT cells); type: cell-based; details: HEK293T Flp-in-HiBiT cells, 6 hrs incubation; for DC50: read-out: IKZF2 HiBit DC50; for Dmax: HEK-293T, read-out: IKZF2 HiBit Dmax (%)
Summary of the method: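 HEK293T Flp-in cells carrying an endogenous N-terminal HiBiT tag on IKZF2 were exposed to compound for 6 h at 0.1% DMSO. The dilution series was 11 doses at 3-fold, diluted from 1 mM. Nano-Glo HiBiT lytic luminescence, normalized to DMSO, gave DC50 for 50% degradation and Dmax across the concentration range, both reported in letter bins.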

CRBN/DDB1 = CRBN/DDB1 (Homo sapiens (Human), UniProt Q96SW2); assay: IC50 measurements for binding to CRBN/DDB1 (HTRF); details: His tagged CRBN+DDB, Cy5-labeled Thalidomide probe, one hour
Summary of the method: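 HTRF competition binding with 2 nM His-tagged CRBN-DDB1 complex, 60 nM Cy5-thalidomide probe and 0.4 nM anti-His Tb cryptate in 50 mM HEPES pH 7.5, 1 mM TCEP, 0.01% Brij-35, 50 mM NaCl, 0.1% BSA. Read after 1 h at room temperature; IC50 from four-parameter dose-response fit.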

IKZF1 = IKZF1 (Homo sapiens (Human), UniProt Q13422+Q96SW2); assay: In vitro IKZF1 HiBit Assay (HEK293T Flp-in-HiBiT-IKZF1 stable cell line); type: cell-based; details: HEK293T Flp-in-HiBiT-IKZF1 stable cell line, 6 hrs incubation; for DC50: read-out: IKZF1 HiBit DC50; for Dmax: HEK-293T, read-out: IKZF1 HiBit Dmax (%)
Summary of the method: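 HEK293T Flp-in cells carrying N-terminal HiBiT-tagged IKZF1 were exposed to compound (0.1% DMSO) for 6 h at 3000 cells/well. HiBiT luminescence was read after lytic LgBiT detection. DC50 and Dmax were taken from DMSO-normalized dose-response curves.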

Chain of CRBN/DDB1 (Q96SW2 whole entry, species assumed): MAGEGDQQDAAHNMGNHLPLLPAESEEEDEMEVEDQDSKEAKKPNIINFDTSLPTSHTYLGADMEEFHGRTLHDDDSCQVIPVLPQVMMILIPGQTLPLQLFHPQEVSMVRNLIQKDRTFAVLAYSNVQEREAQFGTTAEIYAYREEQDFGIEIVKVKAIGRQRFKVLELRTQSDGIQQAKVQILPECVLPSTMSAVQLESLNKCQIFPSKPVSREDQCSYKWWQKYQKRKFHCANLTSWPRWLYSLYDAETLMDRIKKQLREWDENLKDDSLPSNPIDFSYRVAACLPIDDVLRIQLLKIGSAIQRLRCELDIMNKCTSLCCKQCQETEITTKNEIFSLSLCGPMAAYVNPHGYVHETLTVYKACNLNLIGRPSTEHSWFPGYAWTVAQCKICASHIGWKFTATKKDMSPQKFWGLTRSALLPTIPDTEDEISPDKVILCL
Chain of CRBN/DDB1 (Q16531 whole entry partner, species assumed): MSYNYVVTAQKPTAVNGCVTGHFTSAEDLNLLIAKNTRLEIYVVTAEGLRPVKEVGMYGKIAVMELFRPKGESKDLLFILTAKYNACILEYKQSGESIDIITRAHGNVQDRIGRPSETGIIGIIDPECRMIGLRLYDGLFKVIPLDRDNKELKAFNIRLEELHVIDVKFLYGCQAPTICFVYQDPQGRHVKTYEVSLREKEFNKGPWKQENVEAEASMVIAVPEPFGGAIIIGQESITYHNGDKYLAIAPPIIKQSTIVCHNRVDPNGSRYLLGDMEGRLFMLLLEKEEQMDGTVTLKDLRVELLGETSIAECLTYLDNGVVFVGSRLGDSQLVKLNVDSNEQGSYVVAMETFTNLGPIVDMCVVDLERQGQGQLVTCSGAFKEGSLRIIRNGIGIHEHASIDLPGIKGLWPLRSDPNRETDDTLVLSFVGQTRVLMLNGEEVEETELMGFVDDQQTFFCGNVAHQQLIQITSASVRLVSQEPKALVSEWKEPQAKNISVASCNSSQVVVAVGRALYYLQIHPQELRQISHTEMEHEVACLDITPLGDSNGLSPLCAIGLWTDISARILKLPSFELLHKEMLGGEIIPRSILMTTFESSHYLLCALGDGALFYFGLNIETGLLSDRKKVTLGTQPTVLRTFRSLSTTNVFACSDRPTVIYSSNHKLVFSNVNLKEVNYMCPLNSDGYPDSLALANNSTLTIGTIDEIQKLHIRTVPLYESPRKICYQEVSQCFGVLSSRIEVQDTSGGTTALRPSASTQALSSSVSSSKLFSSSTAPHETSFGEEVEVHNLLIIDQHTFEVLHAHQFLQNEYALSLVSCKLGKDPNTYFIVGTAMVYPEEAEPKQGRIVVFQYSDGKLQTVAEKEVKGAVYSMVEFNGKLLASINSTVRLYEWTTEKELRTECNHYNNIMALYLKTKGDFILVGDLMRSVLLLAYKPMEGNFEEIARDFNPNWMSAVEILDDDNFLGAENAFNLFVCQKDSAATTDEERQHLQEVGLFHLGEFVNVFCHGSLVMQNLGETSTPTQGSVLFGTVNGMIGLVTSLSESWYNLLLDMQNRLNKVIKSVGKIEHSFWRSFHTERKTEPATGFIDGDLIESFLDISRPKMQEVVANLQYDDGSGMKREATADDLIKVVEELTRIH
Chain of IKZF2 (Q9UKS7 whole entry): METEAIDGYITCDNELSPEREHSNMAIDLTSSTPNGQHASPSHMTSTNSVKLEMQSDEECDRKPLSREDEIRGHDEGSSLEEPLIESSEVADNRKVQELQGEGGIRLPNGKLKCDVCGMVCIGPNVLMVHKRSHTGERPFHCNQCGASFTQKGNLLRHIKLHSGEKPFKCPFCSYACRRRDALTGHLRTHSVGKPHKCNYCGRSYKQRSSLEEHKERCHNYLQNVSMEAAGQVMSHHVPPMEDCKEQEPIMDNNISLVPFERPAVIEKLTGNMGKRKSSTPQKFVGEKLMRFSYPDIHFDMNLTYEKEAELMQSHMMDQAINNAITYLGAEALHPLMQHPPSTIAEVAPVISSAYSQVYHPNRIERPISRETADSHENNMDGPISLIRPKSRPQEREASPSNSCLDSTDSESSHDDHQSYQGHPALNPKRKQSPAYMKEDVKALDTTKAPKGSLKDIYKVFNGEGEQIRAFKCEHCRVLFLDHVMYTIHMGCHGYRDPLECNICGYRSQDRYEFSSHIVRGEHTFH
Chain of IKZF2 (Q96SW2 whole entry): as the sequence (Q96SW2 whole entry, species assumed) above
Chain of IKZF2 (Q16531 2-1140 partner): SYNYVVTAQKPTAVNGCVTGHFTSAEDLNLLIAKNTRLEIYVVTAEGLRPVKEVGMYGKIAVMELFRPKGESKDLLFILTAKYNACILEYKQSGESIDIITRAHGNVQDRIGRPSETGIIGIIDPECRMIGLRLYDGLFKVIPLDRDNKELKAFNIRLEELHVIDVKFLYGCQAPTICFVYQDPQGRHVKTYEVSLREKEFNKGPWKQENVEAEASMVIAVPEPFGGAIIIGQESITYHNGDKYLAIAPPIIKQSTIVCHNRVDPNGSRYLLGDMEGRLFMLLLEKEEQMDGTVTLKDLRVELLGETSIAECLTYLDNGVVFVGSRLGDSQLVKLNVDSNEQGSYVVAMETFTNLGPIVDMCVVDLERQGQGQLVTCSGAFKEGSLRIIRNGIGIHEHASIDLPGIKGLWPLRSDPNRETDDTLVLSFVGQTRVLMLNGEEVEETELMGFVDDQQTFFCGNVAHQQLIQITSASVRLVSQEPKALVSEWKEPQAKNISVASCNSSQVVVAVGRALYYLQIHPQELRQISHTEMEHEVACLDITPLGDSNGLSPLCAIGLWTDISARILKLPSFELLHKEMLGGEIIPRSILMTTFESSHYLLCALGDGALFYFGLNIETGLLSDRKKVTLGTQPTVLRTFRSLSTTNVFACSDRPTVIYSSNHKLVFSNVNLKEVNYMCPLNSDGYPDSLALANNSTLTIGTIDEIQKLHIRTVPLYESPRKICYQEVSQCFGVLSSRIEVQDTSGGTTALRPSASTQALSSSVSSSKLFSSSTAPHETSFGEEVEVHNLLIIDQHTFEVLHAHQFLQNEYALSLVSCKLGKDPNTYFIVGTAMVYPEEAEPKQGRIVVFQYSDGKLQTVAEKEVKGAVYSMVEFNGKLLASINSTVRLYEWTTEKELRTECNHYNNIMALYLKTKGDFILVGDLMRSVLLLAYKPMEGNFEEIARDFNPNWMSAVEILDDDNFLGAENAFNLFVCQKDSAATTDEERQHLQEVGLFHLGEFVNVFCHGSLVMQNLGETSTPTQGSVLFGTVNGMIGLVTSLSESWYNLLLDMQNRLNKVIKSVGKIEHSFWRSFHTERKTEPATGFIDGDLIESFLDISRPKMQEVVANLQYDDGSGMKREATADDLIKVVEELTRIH
Chain of IKZF1 (Q13422 whole entry): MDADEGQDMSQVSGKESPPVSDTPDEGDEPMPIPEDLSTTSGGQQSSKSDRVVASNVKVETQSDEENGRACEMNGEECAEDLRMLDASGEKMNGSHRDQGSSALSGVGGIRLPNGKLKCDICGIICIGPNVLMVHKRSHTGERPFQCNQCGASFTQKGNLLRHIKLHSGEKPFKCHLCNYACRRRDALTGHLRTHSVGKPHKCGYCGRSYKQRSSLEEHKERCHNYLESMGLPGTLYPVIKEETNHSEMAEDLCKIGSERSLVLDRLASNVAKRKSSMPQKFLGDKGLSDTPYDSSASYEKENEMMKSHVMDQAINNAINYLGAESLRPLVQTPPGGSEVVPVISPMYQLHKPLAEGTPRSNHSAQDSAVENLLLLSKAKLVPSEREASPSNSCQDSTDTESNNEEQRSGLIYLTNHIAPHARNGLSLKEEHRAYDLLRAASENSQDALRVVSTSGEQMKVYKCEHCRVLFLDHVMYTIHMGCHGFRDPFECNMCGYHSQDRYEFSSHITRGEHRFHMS
Chain of IKZF1 (Q96SW2 whole entry): as the sequence (Q96SW2 whole entry, species assumed) above
Chain of IKZF1 (Q16531 2-1140 partner): as the sequence (Q16531 2-1140 partner) above

O=C1CCC(N2Cc3cc(-c4cc(CN5CCC(CO)CC5)c5ccn(C6CC6)c5n4)ccc3C2=O)C(=O)N1 (stereo not drawn) [Example 144, 3-(5-(1-cyclopropyl-4-((4-(hydroxymethyl)piperidin-1-yl)methyl)-1H-pyrrolo[2,3-b]pyridin-6-yl)-1-oxoisoindolin-2-yl) piperidine-2,6-dione]
DC50 (IKZF2): 1 to 10 nM | Dmax (IKZF2): > 80% | IC50 (CRBN/DDB1): 100 to 500 nM | DC50 (IKZF1): 10 to 100 nM | Dmax (IKZF1): 20 to 40%

O=C1CCC(N2Cc3cc(-c4cc(CN5CCCC5)c5nc[nH]c5n4)ccc3C2=O)C(=O)N1 (stereo not drawn) [Example 145, 3-(1-oxo-5-(7-(pyrrolidin-1-ylmethyl)-3H-imidazo[4,5-b]pyridin-5-yl)isoindolin-2-yl) piperidine-2,6-dione]
DC50 (IKZF2): 100 to 1000 nM | Dmax (IKZF2): < 20% | IC50 (CRBN/DDB1): 1000 to 5000 nM | DC50 (IKZF1): > 10000 nM | Dmax (IKZF1): < 20%

CC(C)C1CCN(Cc2cc(-c3ccc4c(c3)CN(C3CCC(=O)NC3=O)C4=O)nc3[nH]ccc23)C1 (stereo not drawn) [Example 146]
DC50 (IKZF2): 1 to 10 nM | Dmax (IKZF2): > 80% | IC50 (CRBN/DDB1): 100 to 500 nM | DC50 (IKZF1): 1 to 10 nM | Dmax (IKZF1): 40 to 60%

O=C1CCC(N2Cc3cc(-c4cc(CN5CCCC5)c5ccn(Cc6ccccc6)c5n4)ccc3C2=O)C(=O)N1 (stereo not drawn) [Example 147, 3-(5-(1-benzyl-4-(pyrrolidin-1-ylmethyl)-1H-pyrrolo[2,3-b]pyridin-6-yl)-1-oxoisoindolin-2-yl) piperidine-2,6-dione]
DC50 (IKZF2): 1 to 10 nM | Dmax (IKZF2): 40 to 60% | IC50 (CRBN/DDB1): 100 to 500 nM | DC50 (IKZF1): > 10000 nM | Dmax (IKZF1): < 20%

CC#CCn1ccc2c(CN3CCCC3)cc(-c3ccc4c(c3)CN(C3CCC(=O)NC3=O)C4=O)nc21 (stereo not drawn) [Example 148, 3-(5-(1-(but-2-yn-1-yl)-4-(pyrrolidin-1-ylmethyl)-1H-pyrrolo[2,3-b]pyridin-6-yl)-1-oxoisoindolin-2-yl) piperidine-2,6-dione]
DC50 (IKZF2): 1 to 10 nM | Dmax (IKZF2): 60 to 80% | IC50 (CRBN/DDB1): 100 to 500 nM | DC50 (IKZF1): > 10000 nM | Dmax (IKZF1): < 20%

CN(C)C(=O)Cn1ccc2c(CN3CCCC3)cc(-c3ccc4c(c3)CN(C3CCC(=O)NC3=O)C4=O)nc21 (stereo not drawn) [Example 149, 2-(6-(2-(2,6-dioxopiperidin-3-yl)-1-oxoisoindolin-5-yl)-4-(pyrrolidin-1-ylmethyl)-1H-pyrrolo[2,3-b]pyridin-1-yl)-N,N-dimethylacetamide]
DC50 (IKZF2): 100 to 1000 nM | Dmax (IKZF2): 20 to 40% | IC50 (CRBN/DDB1): 1000 to 5000 nM | DC50 (IKZF1): > 10000 nM | Dmax (IKZF1): < 20%

O=C1CCC(N2Cc3cc(-c4cc(CN5CCCC5)c5ccn(C6CCCC6)c5n4)ccc3C2=O)C(=O)N1 (stereo not drawn) [Example 154, 3-(5-(1-cyclopentyl-4-(pyrrolidin-1-ylmethyl)-1H-pyrrolo[2,3-b]pyridin-6-yl)-1-oxoisoindolin-2-yl) piperidine-2,6-dione]
DC50 (IKZF2): 1 to 10 nM | Dmax (IKZF2): 60 to 80% | IC50 (CRBN/DDB1): 500 to 1000 nM | DC50 (IKZF1): > 10000 nM | Dmax (IKZF1): < 20%

O=C1CCC(N2Cc3cc(-c4cc(CN5CCC(CO)C5)c5ccn(C6CC6)c5n4)ccc3C2=O)C(=O)N1 (stereo not drawn) [Example 155, 3-(5-(1-cyclopropyl-4-((3-(hydroxymethyl)pyrrolidin-1-yl)methyl)-1H-pyrrolo[2,3-b]pyridin-6-yl)-1-oxoisoindolin-2-yl) piperidine-2,6-dione]
DC50 (IKZF2): 1 to 10 nM | Dmax (IKZF2): > 80% | IC50 (CRBN/DDB1): 100 to 500 nM | DC50 (IKZF1): 10 to 100 nM | Dmax (IKZF1): 20 to 40%

O=C1CCC(N2Cc3cc(-c4cc(CN5CCC5)c5[nH]ccc5n4)ccc3C2=O)C(=O)N1 (stereo not drawn) [Example 156, 3-(5-(7-(azetidin-1-ylmethyl)-1H-pyrrolo[3,2-b]pyridin-5-yl)-1-oxoisoindolin-2-yl) piperidine-2,6-dione]
DC50 (IKZF2): 1 to 10 nM | Dmax (IKZF2): > 80% | IC50 (CRBN/DDB1): 1000 to 5000 nM | DC50 (IKZF1): 10 to 100 nM | Dmax (IKZF1): 20 to 40%

O=C1CCC(N2Cc3cc(-c4cc(CN5CCC(F)C5)c5ccn(C6COC6)c5n4)ccc3C2=O)C(=O)N1 (stereo not drawn) [Example 157, 3-(5-(4-((3-fluoropyrrolidin-1-yl)methyl)-1-(oxetan-3-yl)-1H-pyrrolo[2,3-b]pyridin-6-yl)-1-oxoisoindolin-2-yl) piperidine-2,6-dione]
DC50 (IKZF2): 1 to 10 nM | Dmax (IKZF2): > 80% | IC50 (CRBN/DDB1): 500 to 1000 nM | DC50 (IKZF1): > 10000 nM | Dmax (IKZF1): < 20%

O=C1CCC(N2Cc3cc(-c4cc(CN5CCC(O)CC5)c5ccn(C6CC6)c5n4)ccc3C2=O)C(=O)N1 (stereo not drawn) [Example 159, 3-(5-(1-cyclopropyl-4-((4-hydroxypiperidin-1-yl)methyl)-1H-pyrrolo[2,3-b]pyridin-6-yl)-1-oxoisoindolin-2-yl) piperidine-2,6-dione]
DC50 (IKZF2): 1 to 10 nM | Dmax (IKZF2): 60 to 80% | IC50 (CRBN/DDB1): 100 to 500 nM | DC50 (IKZF1): 10 to 100 nM | Dmax (IKZF1): 20 to 40%

O=C1CCC(N2Cc3cc(-c4cc(CN5CC(O)C5)c5ccn(C6COC6)c5n4)ccc3C2=O)C(=O)N1 (stereo not drawn) [Example 160, 3-(5-(4-((3-hydroxyazetidin-1-yl)methyl)-1-(oxetan-3-yl)-1H-pyrrolo[2,3-b]pyridin-6-yl)-1-oxoisoindolin-2-yl) piperidine-2,6-dione]
DC50 (IKZF2): 10 to 100 nM | Dmax (IKZF2): 40 to 60% | IC50 (CRBN/DDB1): < 100 nM | DC50 (IKZF1): > 10000 nM | Dmax (IKZF1): < 20%

O=C1CCC(N2Cc3cc(-c4cc(CN5CC(CO)C5)c5ccn(C6COC6)c5n4)ccc3C2=O)C(=O)N1 (stereo not drawn) [Example 165, 3-(5-(4-((3-(hydroxymethyl)azetidin-1-yl)methyl)-1-(oxetan-3-yl)-1H-pyrrolo[2,3-b]pyridin-6-yl)-1-oxoisoindolin-2-yl) piperidine-2,6-dione]
DC50 (IKZF2): 10 to 100 nM | Dmax (IKZF2): 60 to 80% | IC50 (CRBN/DDB1): 100 to 500 nM | DC50 (IKZF1): > 10000 nM | Dmax (IKZF1): < 20%

O=C1CCC(N2Cc3cc(-c4cc(CN5CCCC5)c5ccn(C6CCCCC6)c5n4)ccc3C2=O)C(=O)N1 (stereo not drawn) [Example 166, 3-(5-(1-cyclohexyl-4-(pyrrolidin-1-ylmethyl)-1H-pyrrolo[2,3-b]pyridin-6-yl)-1-oxoisoindolin-2-yl) piperidine-2,6-dione]
DC50 (IKZF2): 1 to 10 nM | Dmax (IKZF2): 40 to 60% | IC50 (CRBN/DDB1): 100 to 500 nM | DC50 (IKZF1): > 10000 nM | Dmax (IKZF1): < 20%

CN(C)C(=O)CC1CCN(Cc2cc(-c3ccc4c(c3)CN(C3CCC(=O)NC3=O)C4=O)nc3[nH]ccc23)C1 (stereo not drawn) [Example 167, 2-(1-((6-(2-(2,6-dioxopiperidin-3-yl)-1-oxoisoindolin-5-yl)-1H-pyrrolo[2,3-b]pyridin-4-yl)methyl)pyrrolidin-3-yl)-N,N-dimethylacetamide]
DC50 (IKZF2): 10 to 100 nM | Dmax (IKZF2): 60 to 80% | IC50 (CRBN/DDB1): 100 to 500 nM | DC50 (IKZF1): 100 to 1000 nM | Dmax (IKZF1): 20 to 40%

O=C1CCC(N2Cc3cc(-c4cc(CN5CCCC5)c5ccn(C6CNC6)c5n4)ccc3C2=O)C(=O)N1 (stereo not drawn) [Example 168, 3-(5-(1-(azetidin-3-yl)-4-(pyrrolidin-1-ylmethyl)-1H-pyrrolo[2,3-b]pyridin-6-yl)-1-oxoisoindolin-2-yl) piperidine-2,6-dione]
DC50 (IKZF2): 100 to 1000 nM | Dmax (IKZF2): 60 to 80% | IC50 (CRBN/DDB1): 500 to 1000 nM | DC50 (IKZF1): 1000 to 10000 nM | Dmax (IKZF1): 20 to 40%

CN1CC(n2ccc3c(CN4CCCC4)cc(-c4ccc5c(c4)CN(C4CCC(=O)NC4=O)C5=O)nc32)C1 (stereo not drawn) [Example 169, 3-(5-(1-(1-methylazetidin-3-yl)-4-(pyrrolidin-1-ylmethyl)-1H-pyrrolo[2,3-b]pyridin-6-yl)-1-oxoisoindolin-2-yl) piperidine-2,6-dione]
DC50 (IKZF2): 1 to 10 nM | Dmax (IKZF2): > 80% | IC50 (CRBN/DDB1): < 100 nM | DC50 (IKZF1): 10 to 100 nM | Dmax (IKZF1): 40 to 60%

O=C1CCC(N2Cc3cc(-c4cc(CN5CCCC5)c5ccn(C6CCOCC6)c5n4)ccc3C2=O)C(=O)N1 (stereo not drawn) [Example 171, 3-(1-oxo-5-(4-(pyrrolidin-1-ylmethyl)-1-(tetrahydro-2H-pyran-4-yl)-1H-pyrrolo[2,3-b]pyridin-6-yl)isoindolin-2-yl) piperidine-2,6-dione]
DC50 (IKZF2): 1 to 10 nM | Dmax (IKZF2): 60 to 80% | IC50 (CRBN/DDB1): 100 to 500 nM | DC50 (IKZF1): > 10000 nM | Dmax (IKZF1): < 20%

CC(C)n1ccc2nc(-c3ccc4c(c3)CN(C3CCC(=O)NC3=O)C4=O)cc(CN3CCCC3)c21 (stereo not drawn) [Example 172, 3-(5-(1-isopropyl-7-(pyrrolidin-1-ylmethyl)-1H-pyrrolo[3,2-b]pyridin-5-yl)-1-oxoisoindolin-2-yl) piperidine-2,6-dione]
DC50 (IKZF2): 10 to 100 nM | Dmax (IKZF2): 60 to 80% | IC50 (CRBN/DDB1): 1000 to 5000 nM | DC50 (IKZF1): 100 to 1000 nM | Dmax (IKZF1): 20 to 40%

O=C1CCC(N2Cc3cc(-c4cc(CN5CCCC5)c5c(ccn5CCCO)n4)ccc3C2=O)C(=O)N1 (stereo not drawn) [Example 173, 3-(5-(1-(3-hydroxypropyl)-7-(pyrrolidin-1-ylmethyl)-1H-pyrrolo[3,2-b]pyridin-5-yl)-1-oxoisoindolin-2-yl) piperidine-2,6-dione]
DC50 (IKZF2): 10 to 100 nM | Dmax (IKZF2): 60 to 80% | IC50 (CRBN/DDB1): 1000 to 5000 nM | DC50 (IKZF1): 100 to 1000 nM | Dmax (IKZF1): 20 to 40%

O=C1CCC(N2Cc3cc(-c4cc(CN5CCCC5)c5c(ccn5C5CC5)n4)ccc3C2=O)C(=O)N1 (stereo not drawn) [Example 174, 3-(5-(1-cyclopropyl-7-(pyrrolidin-1-ylmethyl)-1H-pyrrolo[3,2-b]pyridin-5-yl)-1-oxoisoindolin-2-yl) piperidine-2,6-dione]
DC50 (IKZF2): 1 to 10 nM | Dmax (IKZF2): 60 to 80% | IC50 (CRBN/DDB1): 500 to 1000 nM | DC50 (IKZF1): 10 to 100 nM | Dmax (IKZF1): 20 to 40%
